Test results taken from the NIST ThermoML archive (doi:10.1021/je049701s).
Numbers after ± are expanded uncertainties.

Conditions: Liquid; for mass density: 293.1 K, 101.33 kPa; for vapor or sublimation pressure: Ebulliometric method (Recirculating still)

Cc1cccc(C)c1 [1,3-dimethylbenzene]
Conditions	mass density [kg/m3]	vapor or sublimation pressure [kPa]
–	864.2 ± 0.45	–
362.45 K	–	21.82 ± 0.33
366.31 K	–	25 ± 0.36
371.49 K	–	29.94 ± 0.4
376.31 K	–	35 ± 0.45
380.81 K	–	40.36 ± 0.5
384.3 K	–	45 ± 0.55
387.84 K	–	50 ± 0.61
389.84 K	–	53.54 ± 0.73
393.34 K	–	60 ± 0.73
397.71 K	–	67.97 ± 0.79
400.96 K	–	75 ± 0.87
403.25 K	–	80 ± 0.92
406.5 K	–	87.74 ± 0.94
407.5 K	–	90 ± 1
409.4 K	–	95 ± 1.1
415.54 K	–	111.8 ± 1.2
423.34 K	–	137.3 ± 1.3

CCc1ccccc1 [ethylbenzene]
Conditions	mass density [kg/m3]	vapor or sublimation pressure [kPa]
–	867.1 ± 0.44	–
385.7 K	–	50 ± 0.66
387.75 K	–	53.37 ± 0.69
391.51 K	–	60 ± 0.73
394.15 K	–	65 ± 0.8
397.49 K	–	71.87 ± 0.84
398.93 K	–	75 ± 0.89
401.16 K	–	80 ± 0.92
403.27 K	–	85 ± 0.98
405.26 K	–	90 ± 1
407.14 K	–	95 ± 1.1
412.49 K	–	110.02 ± 1.2
417 K	–	124.3 ± 1.3

Cc1ccc(C)cc1 [1,4-dimethylbenzene]
Conditions	mass density [kg/m3]	vapor or sublimation pressure [kPa]
–	861.2 ± 0.45	–
389.8 K	–	53.26 ± 0.67
390.85 K	–	55 ± 0.71
393.61 K	–	60 ± 0.77
398.72 K	–	70 ± 0.8
401.06 K	–	75 ± 0.88
403.29 K	–	80 ± 0.91
405.37 K	–	84.84 ± 0.99
409.38 K	–	95 ± 1.2
420.93 K	–	129.7 ± 1.2

Cc1ccccc1C [1,2-dimethylbenzene]
Conditions	Normal boiling temperature [°C]	mass density [kg/m3]	vapor or sublimation pressure [kPa]
396.73 K	–	–	55 ± 0.03
399.52 K	–	–	60 ± 0.03
400.66 K	–	–	62.13 ± 0.03
404.71 K	–	–	70 ± 0.03
407.05 K	–	–	75 ± 0.03
409.44 K	–	–	80.33 ± 0.04
411.44 K	–	–	85 ± 0.04
413.5 K	–	–	90 ± 0.04
415.44 K	–	–	95 ± 0.04
418.23 K	–	–	102.5 ± 0.04
427 K	–	–	129.3 ± 0.04
Vibrating tube method	–	879.8 ± 0.13	–
ebulliometry	144.40 ± 0.005	–	–
